The IC50 is the point on the concentration scale where inhibition reaches its midpoint.

In experiment [1] the target is T1, TYK2 (Homo sapiens, UniProt P29597). The experiment can be described thus: HEK-Blue IL-23 reporter assay (SEAP) for TYK2 pseudokinase inhibition. Type of experiment: cell-based. Also on record: HEK-Blue™ IL-23 and IFNα/β cells with a stably-integrated cytokine receptor and STAT3 or STAT1; host or cells: HEK-Blue IL-23 / HEK-Blue IFNα/β cells (HEK293 background). The following applies: HEK-Blue IL-23 cells, 10 ng/mL human recombinant IL-23, SEAP reporter; read-out: IL23 IC50. On the procedure: (§1) HEK-Blue™ IL-23 and IFNα/β cells with a stably-integrated cytokine receptor and STAT3 or STAT1 express STAT-inducible secreted embryonic alkaline phosphatase (SEAP) reporter gene upon cytokine stimulation. These cells are plated in DMVEM (Gibco) containing 10% heat-inactivated FBS (Gibco) and 100 U/mL PenStrep (Gibco) at 37° C. under […] conditions for 20-22 hours. The cells are then pretreated with serially diluted test compounds for 60 min prior to stimulation with either 10 ng/mL human recombinant IL-23 (Miltenyl Biotech) or 1 ng/mL human recombinant IFNα (InvivoGen) for 22-24 hours for IL-23 or 16-18 h for IFNα. SEAP induction is measured using the QUANTI Blue™ Solution (InvivoGen) according to the manufacturer's instructions. Inhibition data are calculated by comparison to no inhibitor control wells for 000 inhibition and non-stimulated control wells for 10000 inhibition. Dose response curves are generated to determine the concentration required to inhibit 5000 of cellular response (IC50) as derived by non-linear regression analysis.
Background: Reporter assays use an easily measured gene product as a stand-in for the process of interest.

Experiment [2] addresses T1, TYK2. In words: HEK-Blue IFNα/β reporter assay (SEAP) for TYK2 pseudokinase inhibition. The experiment is classed as cell-based. The settings on record: HEK-Blue IFNα/β cells, 1 ng/mL human recombinant IFNα. On the procedure: as §1

T1 sequence (P29597 whole entry): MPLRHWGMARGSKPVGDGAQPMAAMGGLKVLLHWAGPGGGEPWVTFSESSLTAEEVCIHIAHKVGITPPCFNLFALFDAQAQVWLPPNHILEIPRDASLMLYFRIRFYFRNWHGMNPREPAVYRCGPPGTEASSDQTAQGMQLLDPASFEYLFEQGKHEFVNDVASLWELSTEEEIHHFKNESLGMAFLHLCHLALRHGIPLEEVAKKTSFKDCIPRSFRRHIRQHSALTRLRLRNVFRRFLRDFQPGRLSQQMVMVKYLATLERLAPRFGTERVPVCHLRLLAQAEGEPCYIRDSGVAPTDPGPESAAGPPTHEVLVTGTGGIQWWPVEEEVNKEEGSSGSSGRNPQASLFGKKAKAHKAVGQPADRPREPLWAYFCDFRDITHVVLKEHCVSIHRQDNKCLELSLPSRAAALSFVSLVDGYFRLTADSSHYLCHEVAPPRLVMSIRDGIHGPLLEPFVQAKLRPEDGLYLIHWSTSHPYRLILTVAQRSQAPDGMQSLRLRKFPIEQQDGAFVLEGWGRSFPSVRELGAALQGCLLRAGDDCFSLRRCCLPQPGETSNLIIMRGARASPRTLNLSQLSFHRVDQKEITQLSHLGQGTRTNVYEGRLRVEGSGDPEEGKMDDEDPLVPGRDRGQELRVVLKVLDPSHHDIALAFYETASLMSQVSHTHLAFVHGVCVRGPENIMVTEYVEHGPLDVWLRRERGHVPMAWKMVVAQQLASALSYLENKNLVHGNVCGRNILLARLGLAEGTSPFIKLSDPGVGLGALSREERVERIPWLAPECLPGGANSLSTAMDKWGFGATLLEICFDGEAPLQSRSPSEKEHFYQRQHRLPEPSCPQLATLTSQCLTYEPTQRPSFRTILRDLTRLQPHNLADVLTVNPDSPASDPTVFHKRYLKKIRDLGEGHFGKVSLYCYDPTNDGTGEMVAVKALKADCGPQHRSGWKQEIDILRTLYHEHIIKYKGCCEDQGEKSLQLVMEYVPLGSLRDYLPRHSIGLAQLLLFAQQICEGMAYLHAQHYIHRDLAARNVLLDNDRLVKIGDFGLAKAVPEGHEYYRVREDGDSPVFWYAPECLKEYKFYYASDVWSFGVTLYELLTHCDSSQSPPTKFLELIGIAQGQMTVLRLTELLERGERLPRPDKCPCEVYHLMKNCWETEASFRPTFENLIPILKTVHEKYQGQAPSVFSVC

As for `O=c1[nH]n(-c2ccc(C(F)(F)F)cc2)c2cc(Nc3ccc(F)cn3)ncc12` [Compound I-67, 6-((5-fluoropyridin-2-yl)amino)-1-(4-(trifluoromethyl)phenyl)-1,2-dihydro-3H-pyrazolo[4,3-c]pyridin-3-one], the half-maximal inhibitory concentration (IC50) on TYK2 [1] and at TYK2 [2] was below 10 µM each time.
Regarding `O=C(Nc1cc2c(cn1)c(=O)[nH]n2-c1ccc(C(F)(F)F)cc1)C1CC1` [Compound I-68, N-(3-oxo-1-(4-(trifluoromethyl)phenyl)-2,3-dihydro-1H-pyrazolo[4,3-c]pyridin-6-yl)cyclopropanecarboxamide], the IC50 at TYK2 [1] and at TYK2 [2] was below 10 µM each time.
In the case of `O=c1[nH]n(-c2ccc(OC(F)(F)F)cc2)c2cc(Nc3ccc(F)cn3)ncc12` [Compound I-70, 6-((5-fluoropyridin-2-yl)amino)-1-(4-(trifluoromethoxy)phenyl)-1,2-dihydro-3H-pyrazolo[4,3-c]pyridin-3-one], the IC50 on TYK2 [1] and at TYK2 [2] was below 10 µM throughout.
Turning to `O=C(Nc1cc2c(cn1)c(=O)[nH]n2-c1ccc(OC(F)(F)F)cc1)C1CC1` [Compound I-71, N-(3-oxo-1-(4-(trifluoromethoxy)phenyl)-2,3-dihydro-1H-pyrazolo[4,3-c]pyridin-6-yl)cyclopropanecarboxamide], the IC50 on TYK2 [1] and on TYK2 [2] was below 10 µM throughout.
Turning to `COC(=O)c1ccc(-n2[nH]c(=O)c3cnc(Nc4cc(C)nc(C)n4)cc32)cc1` [Compound I-74, methyl 4-(6-((2,6-dimethylpyrimidin-4-yl)amino)-3-oxo-2,3-dihydro-1H-pyrazolo[4,3-c]pyridin-1-yl)benzoate], the IC50 on TYK2 [1] and on TYK2 [2] was below 10 µM in each case.
Turning to `COC(=O)c1ccc(-n2[nH]c(=O)c3cnc(Nc4ccc(F)cn4)cc32)cc1` [Compound I-75, methyl 4-(6-((5-fluoropyridin-2-yl)amino)-3-oxo-2,3-dihydro-1H-pyrazolo[4,3-c]pyridin-1-yl)benzoate], the half-inhibitory concentration (IC50) at TYK2 [1] and at TYK2 [2] was below 10 µM throughout.
Take `COc1cc(-n2[nH]c(=O)c3cnc(Nc4cc(C)nc(C)n4)cc32)ccc1F` [Compound I-76, 6-((2,6-dimethylpyrimidin-4-yl)amino)-1-(4-fluoro-3-methoxyphenyl)-1,2-dihydro-3H-pyrazolo[4,3-c]pyridin-3-one]: the IC50 at TYK2 [1] and at TYK2 [2] was below 10 µM each time.
Take `COc1cc(-n2[nH]c(=O)c3cnc(Nc4ccc(F)cn4)cc32)ccc1F` [Compound I-77, 1-(4-fluoro-3-methoxyphenyl)-6-((5-fluoropyridin-2-yl)amino)-1,2-dihydro-3H-pyrazolo[4,3-c]pyridin-3-one]: the IC50 on TYK2 [1] and on TYK2 [2] was below 10 µM in each case.
On to `COc1cc(-n2[nH]c(=O)c3cnc(Nc4cc(C)nc(C)n4)cc32)ccc1Cl` [Compound I-78, 1-(4-chloro-3-methoxyphenyl)-6-((2,6-dimethylpyrimidin-4-yl)amino)-1,2-dihydro-3H-pyrazolo[4,3-c]pyridin-3-one], for which the IC50 on TYK2 [1] and on TYK2 [2] was above 90 µM throughout.
For the compound `COc1cc(-n2[nH]c(=O)c3cnc(Nc4ccc(F)cn4)cc32)ccc1Cl` [Compound I-79, 1-(4-chloro-3-methoxyphenyl)-6-((5-fluoropyridin-2-yl)amino)-1,2-dihydro-3H-pyrazolo[4,3-c]pyridin-3-one], the IC50 at TYK2 [1] and at TYK2 [2] was above 90 µM in each case.
Turning to `COc1cc(-n2[nH]c(=O)c3cnc(Nc4cc(C)nc(C)n4)cc32)ccc1C#N` [Compound I-80, 4-(6-((2,6-dimethylpyrimidin-4-yl)amino)-3-oxo-2,3-dihydro-1H-pyrazolo[4,3-c]pyridin-1-yl)-2-methoxybenzonitrile], the IC50 on TYK2 [1] was below 10 µM; on TYK2 [2] it was above 90 µM.
Taken in the same sequence, the figures for `COc1cc(-n2[nH]c(=O)c3cnc(Nc4ccc(F)cn4)cc32)ccc1C#N` [Compound I-81, 4-(6-((5-fluoropyridin-2-yl)amino)-3-oxo-2,3-dihydro-1H-pyrazolo[4,3-c]pyridin-1-yl)-2-methoxybenzonitrile] were below 10 µM and above 90 µM.

These data come from patent US12668594B2, “TYK2 inhibitors and uses thereof” (Sudo Biosciences Limited, priority 2020, dated 2026).
